Measurements taken from paper PMC6099623, “Novel Thiazolidinone/Thiazolo[3,2-a]Benzimidazolone-Isatin Conjugates as Apoptotic Anti-proliferative Agents Towards Breast Cancer: One-Pot Synthesis and In Vitro Biological Evaluation” (Molecules : A Journal of Synthetic Chemistry and Natural …, 2018).
Read-outs that look alike come from different tables or passages of the source.

Experiments:
[1] = test system: MDA-MB-231 cells; assay: Cell cycle analysis by DNA flow cytometry; format: cell-based; conditions: 24 h at IC50 concentration
Experimental: The effect of hybrid 4m on cell cycle progression was evaluated in TNBC MDA-MB-231 cells after 24 h of treatment (Figure 4). Such impact was illustrated by DNA flow cytometric assay where MDA-MB-231 cells were treated with conjugate 4m at its IC50 concentration.
Subsequently, the treated cells were collected by centrifugation, fixed in ice-cold 70% (v/v) ethanol, washed with PBS, re-suspended with 100 μg/mL RNase, stained with 40 μg/mL PI, and analyzed by flow cytometry using FACS Calibur (Becton Dickinson, BD, Franklin Lakes, NJ, USA). The cell cycle distributions were calculated using CellQuest software 5.1 (Becton Dickinson).

[2] = test system: caspase-3; assay: ELISA immunoassay of active caspase-3 level in MDA-MB-231 cells; format: cell-based; conditions: MDA-MB-231 cells treated at IC50 concentration, 48 h
Source text: The down-regulation of the antiapoptotic Bcl-2 leads to an increase in the levels of free pro-apoptotic Bax which in turn accumulates at the inner mitochondrial membrane forming channels, altering membrane permeability. Accordingly, the apoptotic factors can leak into the cytoplasm resulting in the caspases cascade activation. As a key executioner protease, caspase-3 is activated by upstream initiator caspases as caspase-9 [48]. Thence, the elevated Bax/Bcl-2 ratios obtained herein triggered the examination of the protein expression levels of active caspases-3. Treatment of TNBC MDA-MB-231 cells with conjugates 4m and 7b led to a significant increase in the active caspase-3 levels by 6.4 and 4.9 folds, respectively, compared to control (Table 3, Figure 3).
(§1) The levels of the apoptotic markers (Bax, caspase-3) as well as the antiapoptotic marker Bcl-2 were determined using ELISA colorimetric kits per the manufacturer’s instructions, as reported earlier. MDA-MB-231 cells were cultured as a monolayer in T-25 flasks and were seeded to attain 30% confluency prior to treatment. […] At the end of treatment, cells were collected via trypsinization and centrifuged at 10,000 rpm. The pellet was then rinsed with PBS and lysed in RIPA lysis buffer at 4 °C for 45 min, then centrifuged at 14,000 rpm for 20 min to remove the cellular debris. Lysates were then collected and stored at −80 °C for later protein determination using Pierce BCA Protein Assay Kit (Pierce Biotechnology, Rockford, IL, USA) according to manufacturer’s recommendations.
(§2) The cell lysate was diluted 10 times, and 100 μL ([…]) was added to the wells of […] that were pre-coated with primary antibodies specific to Bax, Bcl-2 and caspase-3 proteins, respectively. A secondary biotin-linked antibody specific to the protein captured by the primary antibody was further added to bind the captured protein, forming a “sandwich” of specific antibodies around the desired protein in the cell lysate. The streptavidin-HRP complex was then used to bind the biotin-linked secondary antibody through its streptavidin portion. The HRP domain reacted with the added TMB substrate to form a colored product that measured at 450 nm by a plate reader (ChroMate-4300, Orlando, FL, USA) after the reaction was terminated via the addition of stop solution.

[3] = test system: breast epithelial cell line (MCF-10A); assay: Crystal violet cytotoxicity towards nontumorigenic MCF-10A; format: cell-based, human; conditions: for IC50: Homo sapiens, MCF-10A, nontumorigenic cells, mean ± S.D. of three separate experiments; for Selectivity Index (MCF-10A/MDA-MB-231): ratio of IC50 MCF-10A to IC50 MDA-MB-231
Experimental: (§3) The cytotoxic activity of the active conjugates towards MDA-MB-231 cells (4c–e, 4g, 4l–n and 7a–d) was examined against nontumorigenic human lung fibroblast cell line (WI-38) and human breast epithelial cell line (MCF-10A) to investigate the potential safety of the newly prepared conjugates towards the normal cells. […] The results were expressed as IC50 values, and selectivity index was calculated (Table 2).
(§4) The cytotoxic activity of the active conjugates towards nontumorigenic human lung fibroblast cell line (WI-38) and human breast epithelial cell line (MCF-10A) was determined using Crystal violet (CV) cell cytotoxicity assay according to the previously published procedures.

[4] = test system: lung fibroblast cell line (WI-38); assay: Crystal violet cytotoxicity towards nontumorigenic WI-38; format: cell-based; conditions: Homo sapiens, nontumorigenic cells, mean ± S.D. of three separate experiments
Experimental: as §3, §4

[5] = test system: Bcl-2; assay: ELISA immunoassay of Bcl-2 level in MDA-MB-231 cells; format: cell-based; conditions: MDA-MB-231 cells treated at IC50 concentration; for Bcl-2 / Bcl-2, number of folds of control: 48 h
Experimental: (§5) In our study, we investigated the effect of conjugates 4m and 7b towards the level of the antiapoptotic Bcl2 and the level of the pro-apoptotic Bax, (Table 3, Figure 2).
as §1, §2

[6] = test system: MDA-MB-231 breast cancer cell line; assay: Crystal Violet antiproliferative assay, MDA-MB-231; format: cell-based; conditions: Homo sapiens, MDA-MB-231, 48 h, 48 h of incubation, mean ± S.D. of three separate experiments
Experimental: (§6) The in vitro antiproliferative activity of the newly synthesized conjugates 4a–n and 7a–d was evaluated against breast cancer MDA-MB-231 and MCF-7 cell lines, following the Crystal Violet (CV) cell cytotoxicity assay. Doxorubicin was included in this assay as a positive control, and Sunitinib was used as a reference drug.
(§7) Breast cancer cell lines MDA-MB-231 and MCF-7 cells were obtained from VACSERA Tissue Culture Unit. The cells were propagated in DMEM supplemented with 10% heat-inactivated fetal bovine serum, 1% L-glutamine (2.5 mM), HEPES (4-(2-hydroxyethyl)-1-piperazineethanesulfonic acid) buffer (10 mM) and 50 µg/mL gentamycin. All cells were maintained at 37 °C in a humidified atmosphere with 5% CO2 and were sub-cultured two times a week. Cytotoxicity was determined following the Crystal Violet (CV) cell cytotoxicity assay.
(§8) Test samples were dissolved in DMSO and kept at a stock concentration of 100 mM. Exponentially growing cells were collected using 0.25% Trypsin-EDTA and seeding was done at a density of 3000 cells/well in 96-well plates. After 24 h, the monolayer cultured cells were washed with sterile phosphate buffered saline (0.01 M pH 7.2) and simultaneously the cells were treated with […] from 10 different dilutions of the test compounds as well as Doxorubicin was […] Control wells were exposed to the same concentration of vehicle, DMSO (1%) used in the highest concentration of the test samples. Cell viability was >99% compared to untreated cells. The number of the surviving cells was determined by staining the cells with crystal violet followed by cell lysing using 33% glacial acetic acid. The absorbance was measured at 490 nm using ELISA reader (Thermo Fisher Scientific, Waltham, MA, USA) after gentle shaking. The absorbance values from untreated cells were considered as 100% proliferation.
(§9) The number of viable cells was determined using ELISA reader as previously mentioned and the percentage of viability was calculated as […] where ODt is the mean optical density of wells treated with the test sample and ODc is the mean optical density of untreated cells. The 50% inhibitory concentration (IC50) was estimated from graphic plots of the dose response curve for each conc. using GraphPad Prism software, Version 5 (San Diego, CA, USA). The data presented are the mean of at least three separate experiments.

[7] = test system: MDA-MB-231 cells; assay: Annexin V-FITC/PI apoptosis assay; format: cell-based; conditions: MDA-MB-231 at IC50 concentration
Experimental: Annexin V-based flow cytometry assay elucidates either that cell death is achieved via programmed apoptosis or nonspecific necrosis.
Phosphatidylserine externalization was assayed using Annexin V-FITC/PI apoptosis detection kit (BD Biosciences, San Jose, CA, USA) according to the manufacturer’s instructions, as reported earlier. MDA-MB-231 cells were cultured to a monolayer then treated with conjugate 4m at its IC50 concentration as described earlier. Cells were then harvested via trypsinization, and rinsed twice in PBS followed by binding buffer. Moreover, cells were re-suspended in 100 μL of binding buffer with the addition of 1 μL of FITC-Annexin V (Becton Dickinson BD Pharmingen^TM, Heidelberg, Germany) followed by an incubation period of 30 min at 4 °C. Cells were then rinsed in binding buffer and resuspended in 150 μL of binding buffer with the addition of 1 μL of DAPI (1 μg/μL in PBS) (Invitrogen, Life Technologies, Darmstadt, Germany). Cells were then analyzed using the flow cytometer BD FACS Canto II (BD Biosciences, San Jose, CA, USA) and the results were interpreted with FlowJo7.6.4 software (Tree Star, Ashland, OR, USA).

[8] = test system: MCF-7 breast cancer cell line; assay: Crystal Violet antiproliferative assay, MCF-7; format: cell-based; conditions: for IC50: Homo sapiens, MCF7, 48 h, Crystal Violet assay, 48 h of incubation, mean ± S.D. of three separate experiments
Experimental: as §6, §7, §8, §9

[9] = test system: Bax; assay: ELISA immunoassay of Bax level in MDA-MB-231 cells; format: cell-based; conditions: MDA-MB-231 cells treated at IC50 concentration; for Bax / Bax, number of folds of control: 48 h; for Bax/Bcl-2: control 3.9
Experimental: as §5, §1, §2

[10] = test system: MCF-7 breast cancer cell line; set-up: method as in PMID 28802125; conditions: earlier work of the authors; cited from earlier work

Q: Which “Arrest in G2-M phase compared to control” value [1] does the source give for `Cc1ccc(N=C2SC(=C3C(=O)Nc4ccc(C)cc43)C(=O)N2c2ccc(C)cc2)cc1` [Compound 4m, 5-(5-Methyl-2-oxoindolin-3-ylidene)-3-(p-tolyl)-2-(p-tolylimino)thiazolidin-4-one] here?
A: The value was 2.5 folds.

Q: And the “Rise in percentage of cells at Sub-G1 compared to control” value [1]?
A: Its value is 4 folds.

Q: And the Caspase-3 [2]?
A: The Caspase-3 was 0.19 ± 0.01 ng/mg of Total Protein.

Q: And the “Caspase-3, number of folds of control” value [2]?
A: Its value is 6.4 folds of control.

Q: And the IC50 [3]?
A: Its IC50 is 73.1 ± 2.7 µM.

Q: And the “Selectivity Index (MCF-10A/MDA-MB-231)” value [3]?
A: The value was 9.6.

Q: What about the IC50 [4] of the same compound?
A: Its IC50 is 49.1 ± 1.9 µM.

Q: What about the “Downregulation of Bcl-2 expression level compared to control” value [5] of the same compound?
A: The value was 66.6%.

Q: What about the Bcl-2 [5] of the same compound?
A: Its Bcl-2 is 2.1 ± 0.1 ng/mg of Total Protein.

Q: And the “Bcl-2, number of folds of control” value [5]?
A: Its value is 0.33 folds of control.

Q: And the IC50 [6]?
A: Its IC50 is 7.6 ± 0.5 µM.

Q: And the “Increase of annexin V-FITC-positive apoptotic cells compared with control” value [7]?
A: Its value is “about 6 folds”.

Q: What about the “Percent of annexin V-FITC-positive apoptotic cells, early and late (UR + LR)” value ([7]; control 1.92%) of the same compound?
A: The value was 11.43%.

Q: What about the IC50 [8] of the same compound?
A: Its IC50 is 8.4 ± 0.5 µM.

Q: What about the “Decreased activity against MCF-7 relative to doxorubicin” value ([8]; IC50 ratio to doxorubicin) of the same compound?
A: The value was 2.2 fold.

Q: And the “Boost of Bax/Bcl-2 ratio compared to control” value [9]?
A: The value was 33 folds.

Q: What about the Bax [9] of the same compound?
A: The Bax was 274.8 ± 13.5 pg/mg of Total Protein.

Q: What about the “Bax, number of folds of control” value [9] of the same compound?
A: Its value is 11.1 folds of control.

Q: What about the Bax/Bcl-2 [9] of the same compound?
A: Its Bax/Bcl-2 is 130.5.

Q: Which Caspase-3 [2] does the source give for `COc1ccc2c(c1)C(=c1sc3nc4ccccc4n3c1=O)C(=O)N2` [Compound 7b, 2-(5-Methoxy-2-oxoindolin-3-ylidene)benzo[4,5]imidazo[2,1-b]thiazol-3(2H)-one] here?
A: Its Caspase-3 is 0.15 ± 0.01 ng/mg of Total Protein.

Q: What about the “Caspase-3, number of folds of control” value [2] of the same compound?
A: The value was 4.9 folds of control.

Q: And the IC50 [3]?
A: Its IC50 is 184 ± 8 µM.

Q: What about the “Selectivity Index (MCF-10A/MDA-MB-231)” value [3] of the same compound?
A: The value was 13.9.

Q: And the IC50 [4]?
A: Its IC50 is 121 ± 6.9 µM.

Q: What about the melting point of the same compound?
A: Its melting point is over 300 °C.

Q: And the “Downregulation of Bcl-2 expression level compared to control” value [5]?
A: The value was 55.1%.

Q: What about the Bcl-2 [5] of the same compound?
A: Its Bcl-2 is 2.8 ± 0.1 ng/mg of Total Protein.

Q: And the “Bcl-2, number of folds of control” value [5]?
A: Its value is 0.45 folds of control.

Q: And the IC50 [6]?
A: The IC50 was 13.2 ± 1.7 µM.

Q: And the IC50 [8]?
A: Its IC50 is 21.7 ± 1.5 µM.

Q: And the “Boost of Bax/Bcl-2 ratio compared to control” value [9]?
A: Its value is 16 folds.

Q: And the Bax [9]?
A: Its Bax is 180.0 ± 7.3 pg/mg of Total Protein.

Q: What about the “Bax, number of folds of control” value [9] of the same compound?
A: The value was 7.3 folds of control.

Q: What about the Bax/Bcl-2 [9] of the same compound?
A: Its Bax/Bcl-2 is 64.1.

Q: Which IC50 [10] does the source give for `NS(=O)(=O)c1ccc(/N=C2\NC(=O)/C(=C3/C(=O)Nc4ccc(Cl)cc43)S2)cc1` [compound VI] here?
A: The IC50 was 3.96 ± 0.21 µM.
